PMC7129073 (Clinical Microbiology and Infection, 2015)
Converted amounts (≈) assume the structure as drawn. Marks after values point to notes of the source that are not given here.

Assays:
S. pneumoniae = assay: MIC, NCCLS methods; assay type: cell-based; details: Streptococcus pneumoniae
[1] = system: methicillin resistant Staphylococcus aureus; assay: NCCLS agar dilution MIC; assay type: cell-based; details: Staphylococcus aureus
N meningitidis = assay: MIC, NCCLS methods; assay type: cell-based
E. faecalis [2] = assay: MIC, NCCLS methods; assay type: cell-based; details: Enterococcus faecalis
S. aureus (MR) = assay: MIC, NCCLS methods; assay type: cell-based; details: Staphylococcus aureus
H. parainfluenzae = assay: MIC, NCCLS methods; assay type: cell-based; details: Haemophilus parainfluenzae
M. catarrhalis = assay: MIC, NCCLS methods; assay type: cell-based; details: Moraxella catarrhalis
E. faecium [3] = assay: MIC, NCCLS methods; assay type: cell-based; details: Enterococcus faecium
A. haemolyticum = assay: MIC, NCCLS methods; assay type: cell-based; details: N=9
Streptococcus spp = assay: MIC, NCCLS methods; assay type: cell-based
S. progenies = assay: MIC, NCCLS methods; assay type: cell-based; details: Streptococcus pyogenes
[4] = system: methicillin susceptible Staphylococcus aureus; assay: NCCLS agar dilution MIC; assay type: cell-based; details: Staphylococcus aureus
H. influenzae = assay: MIC, NCCLS methods; assay type: cell-based; details: Haemophilus influenzae
S. aureus (MS) = assay: MIC, NCCLS methods; assay type: cell-based; details: Staphylococcus aureus
B. pertussis = assay: MIC, NCCLS methods; assay type: cell-based; details: N=10
S. aureus = assay: NCCLS broth microdilution MIC, 50 mg/L calcium; assay type: cell-based
[5] = system: coagulase-negative Staphylococci; assay: NCCLS broth microdilution MIC, 50 mg/L calcium; assay type: cell-based
Enterococcus spp. = assay: NCCLS broth microdilution MIC, 50 mg/L calcium; assay type: cell-based
MRSA = assay: Disk diffusion; assay type: cell-based, Staphylococcus aureus; details: 200 isolates
CA-MRSA = assay: MIC, MBC; assay type: cell-based, Staphylococcus aureus
[6] = system: viridans group Streptococcus spp.; assay: NCCLS broth microdilution MIC, 50 mg/L calcium; assay type: cell-based
[7] = system: viridans group streptococci (VgS) and Streptococcus bovis; assay: Broth microdilution and disk diffusion; assay type: cell-based
[8] = system: beta-haemolytic Streptococcus spp.; assay: NCCLS broth microdilution MIC, 50 mg/L calcium; assay type: cell-based
E. faecalis [9] = assay: NCCLS broth microdilution MIC, 50 mg/L calcium; assay type: cell-based
E. faecium [10] = assay: NCCLS broth microdilution MIC, 50 mg/L calcium; assay type: cell-based
MDR-MRSA = assay: MIC, MBC; assay type: cell-based, Staphylococcus aureus; details: time kill, two strains

SMILES: CC[C@H]1OC(=O)[C@H](C)[C@@H](O[C@H]2C[C@@](C)(OC)[C@@H](O)[C@H](C)O2)[C@H](C)[C@@H](O[C@@H]2O[C@H](C)C[C@H](N(C)C)[C@H]2O)[C@](C)(O)C[C@@H](C)C(=O)[C@H](C)[C@@H](O)[C@]1(C)O [Erythromycin A, erythromycin A]
- MIC50 (S. pneumoniae): > 32 µg/mL
- MIC90 (S. pneumoniae): > 32 µg/mL
- MIC50 [1]: > 64 µg/mL
- MIC90 [1]: > 64 µg/mL
- MIC50 (N meningitidis): 0.12 µg/mL (≈ 0.164 µM)
- MIC90 (N meningitidis): 0.25 µg/mL (≈ 0.341 µM)
- MIC50 (E. faecalis [2]): > 64 µg/mL
- MIC90 (E. faecalis [2]): > 64 µg/mL
- MIC50 (S. aureus (MR)): > 64 µg/mL
- MIC90 (S. aureus (MR)): > 64 µg/mL
- MIC50 (H. parainfluenzae): 2 µg/mL (≈ 2.73 µM)
- MIC90 (H. parainfluenzae): 8 µg/mL (≈ 10.9 µM)
- MIC50 (M. catarrhalis): 0.12 µg/mL (≈ 0.164 µM)
- MIC90 (M. catarrhalis): 0.12 µg/mL (≈ 0.164 µM)
- MIC50 (E. faecium [3]): > 64 µg/mL
- MIC90 (E. faecium [3]): > 64 µg/mL
- MIC range (A. haemolyticum): ≤0.015-0.03 ^* mg/L
- MIC50 (Streptococcus spp): 0.06 µg/mL (≈ 0.0818 µM)
- MIC90 (Streptococcus spp): 0.12 µg/mL (≈ 0.164 µM)
- MIC50 (S. progenies): > 64 µg/mL
- MIC90 (S. progenies): > 64 µg/mL
- MIC50 [4]: 0.25 µg/mL (≈ 0.341 µM)
- MIC90 [4]: > 64 µg/mL
- MIC50 (H. influenzae): 4 µg/mL (≈ 5.45 µM)
- MIC90 (H. influenzae): 8 µg/mL (≈ 10.9 µM)
- MIC50 (S. aureus (MS)): 0.25 µg/mL (≈ 0.341 µM)
- MIC90 (S. aureus (MS)): > 64 µg/mL
- MIC range (B. pertussis): 0.06 to 0.12 mg/L

SMILES: CCCCCCCCCC(=O)N[C@@H](Cc1c[nH]c2ccccc12)C(=O)N[C@H](CC(N)=O)C(=O)N[C@@H](CC(=O)O)C(=O)N[C@@H]1C(=O)NCC(=O)N[C@@H](CCCN)C(=O)N[C@@H](CC(=O)O)C(=O)N[C@H](C)C(=O)N[C@@H](CC(=O)O)C(=O)NCC(=O)N[C@H](CO)C(=O)N[C@@H]([C@H](C)CC(=O)O)C(=O)N[C@@H](CC(=O)c2ccccc2N)C(=O)O[C@@H]1C [daptomycin]
- % S (S. aureus; OXA-R): 99.0%
- MIC range (S. aureus; OXA-R): 0.12 to 2 mg/L
- % S (S. aureus; OXA-S): 99.9%
- MIC range (S. aureus; OXA-S): ≤0.06 to 2 mg/L
- % S ([5]; OXA-R): 100.0%
- MIC range ([5]; OXA-R): ≤0.06 to 1 mg/L
- % S ([5]; OXA-S): 100.0%
- MIC range ([5]; OXA-S): 0.12 to 1 mg/L
- % S (Enterococcus spp.): 100.0%
- MIC range (Enterococcus spp.): 0.5 to 4 mg/L
- sensitivity (MRSA): All isolates were sensitive
- time to 99.9% kill, as early as (CA-MRSA; against all strains (CA-MRSA and MDR-MRSA)): 4 h
- Δ Log10 CFU/ml (CA-MRSA; time kill, two strains): −3.88 Log10 CFU/ml
- MIC range [6]: ≤0.06 to 2 mg/L
- MIC90, range between species [7]: 0.06 − 1 mg/L
- Susceptible isolates ([7]; 915 isolates, daptomycin breakpoint ≤ 1 mg/L): 99.9%
- % S [8]: 100.0%
- MIC range [8]: ≤0.06 to 0.5 mg/L
- % S (E. faecalis [9]): 100.0%
- MIC range (E. faecalis [9]): ≤0.06 to 4 mg/L
- % S (E. faecium [10]; VAN-G (77)): 97.4%
- MIC range (E. faecium [10]; VAN-G (77)): 1—8 mg/L
- % S (E. faecium [10]; VAN-R): 100.0%
- MIC range (E. faecium [10]; VAN-R): 1—4 mg/L
- Δ Log10 CFU/ml (MDR-MRSA): −4.12 Log10 CFU/ml
